Test results: patent US20100168084A1, “Therapeutic compounds and related methods of use” (priority 2008, published 2010)
Where two headings read alike, the source gives them in different places.

Experiments:
[1] = system: HDAC; conditions: literature statements; cited from earlier work
[2] = system: sirtuin protein; assay: FP assay (IC50 FP ASSAY / ED50 FP); format: biochemical; conditions: Table 4
[3] = biological target: T1, sirtuin protein (Homo sapiens, UniProt Q96EB6); assay: MS assay (IC50 MS ASSAY / ED50 MS / FOLD ACTIVATION MS); format: biochemical; parameters: scale not given here
T1 sequence (Q96EB6 2-747 limits assumed): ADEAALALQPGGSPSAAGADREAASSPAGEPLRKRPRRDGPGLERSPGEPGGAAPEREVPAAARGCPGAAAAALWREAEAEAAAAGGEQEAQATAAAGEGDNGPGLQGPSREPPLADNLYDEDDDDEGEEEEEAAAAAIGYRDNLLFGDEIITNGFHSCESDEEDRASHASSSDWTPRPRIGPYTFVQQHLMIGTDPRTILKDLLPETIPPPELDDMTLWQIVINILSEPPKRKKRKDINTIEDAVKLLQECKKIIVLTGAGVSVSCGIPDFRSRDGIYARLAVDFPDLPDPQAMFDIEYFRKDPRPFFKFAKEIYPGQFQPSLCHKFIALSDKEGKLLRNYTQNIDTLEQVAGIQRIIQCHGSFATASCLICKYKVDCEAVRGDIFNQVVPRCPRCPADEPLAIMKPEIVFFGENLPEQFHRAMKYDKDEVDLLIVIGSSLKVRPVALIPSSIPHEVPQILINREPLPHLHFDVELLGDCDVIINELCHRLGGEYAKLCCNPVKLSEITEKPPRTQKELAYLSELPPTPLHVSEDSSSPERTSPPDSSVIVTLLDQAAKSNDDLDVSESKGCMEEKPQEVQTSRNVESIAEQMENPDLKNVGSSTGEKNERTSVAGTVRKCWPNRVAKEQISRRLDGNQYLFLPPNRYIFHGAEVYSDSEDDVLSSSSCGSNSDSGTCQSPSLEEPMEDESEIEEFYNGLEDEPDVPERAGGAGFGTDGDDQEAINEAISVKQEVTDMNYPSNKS

[4] = biological target: cytochrome oxidase (Complex IV) (Homo sapiens, UniProt P00395); conditions: cited from earlier work
[5] = topical; cited from earlier work
[6] = MS assay, class symbols, key not given
[7] = Table 4, class symbols A′, A, B, C, NA, legend not given

Row | Compound | ED50 MS ASSAY [3] | ED50 MS ASSAY [3, 6] | ED50 MS ASSAY ([3]; TABLE 4) | ED50 MS ASSAY ([3]; Table 4) | ED50 MS ASSAY [3, 7] | further results
1 | O=C(/C=C/c1cccc(C(=O)NO)c1)NO [CBHA, m-carboxy-cinnamic acid bishydroxamic acid] |  |  |  |  |  | inhibition of HDAC [1]: inhibit HDAC at micromolar concentration or lower
2 | O=C1CN(Cc2csc3nc(-c4ccccc4NC(=O)c4cnc5ccccc5n4)cn23)CCN1 [Compound 677] | A′ |  |  |  |  | ED50 FP ASSAY [2]: A′; ED50 MS ASSAY ([3]; Table 4, class symbols): A′; ED50 MS ASSAY ([3]; Table 4, class symbols A′, A, B, D, NA, legend not given): A′; ED50 MS ASSAY ([3]; class symbols (A′, A, B, D, NA), no legend given): A′
3 | Cc1csc2nc(-c3ccccc3NC(=O)c3cnc4ccccc4n3)cn12 [Compound 707] | A′ | A′ | A′ | A′ | A′ | 
4 | O=C(Nc1ccccc1-c1cn2c(CN3CCNCC3)csc2n1)c1ccc(-c2ccccc2)cc1 [Compound 708] | A′ | A′ | A′ | A′ | A′ | 
5 | O=C(Nc1ccccc1-c1cn2c(CN3CCNCC3)csc2n1)c1cccc(-c2ccccc2)c1 [Compound 710] | A′ | A′ | A′ | A′ | A′ | 
6 | O=C(Nc1ccccc1-c1cn2c(CN3CCSC3)csc2n1)c1cnc2ccccc2n1 [Compound 715] | A′ | A′ | A′ | A′ | A′ | 
7 | NC1CCN(Cc2csc3nc(-c4ccccc4NC(=O)c4cnc5ccccc5n4)cn23)CC1 [Compound 716] | A′ | A′ | A′ | A′ | A′ | 
8 | COc1cc(OC)cc(C(=O)Nc2ccccc2-c2nc3cc(CN(C)C)cnc3s2)c1 [Compound 722] | A′ | A′ | A′ | A′ | A′ | 
9 | O=C(Nc1ccccc1-c1nc2cc(CN3CCOCC3)cnc2s1)c1ccc2ccccc2n1 [Compound 724] | A′ | A′ | A′ | A′ | A′ | 
10 | Cc1ccc(C(=O)Nc2ccccc2-c2nc3ccc(CN4CCNCC4)nc3s2)cc1C [Compound 727] | A′ | A′ | A′ | A′ | A′ | 
11 | O=C(Nc1ccccc1-c1nc2ccc(CN3CCNCC3)nc2s1)c1ccc2ccccc2n1 [Compound 729] | A′ | A′ | A′ | A′ | A′ | 
12 | O=C(Nc1ccccc1-c1nc2cc(CN3CCNCC3)cnc2s1)c1cc(-c2ccccc2)no1 [Compound 732] | A′ | A′ | A′ | A′ | A′ | 
13 | O=C(Nc1ccccc1-c1cn2c(CN3CCNCC3)csc2n1)c1cccc(-c2cc[nH]n2)c1 [Compound 733] | A′ | A′ | A′ | A′ | A′ | 
14 | COc1ccc(-c2cc(C(=O)Nc3ccccc3-c3cn4c(CN5CCNCC5)csc4n3)[nH]n2)cc1 [Compound 735] | A′ | A′ | A′ | A′ | A′ | 
15 | COc1ccc(-c2ccc(C(=O)Nc3ccccc3-c3cn4c(CN5CCNCC5)csc4n3)o2)cc1 [Compound 736] | A′ | A′ | A′ | A′ | A′ | 
16 | O=C(Nc1ccccc1-c1cn2c(CN3CCNCC3)csc2n1)c1cccc(SC(F)F)c1 [Compound 737] | A′ | A′ | A′ | A′ | A′ | 
17 | COc1cc(C(=O)Nc2ccccc2-c2cn3c(C)csc3n2)cc(OC)c1OC [Compound 739] | A′ | A′ | A′ | A′ | A′ | 
18 | Cc1csc2nc(-c3ccccc3NC(=O)c3cccc(N(C)C)c3)cn12 [Compound 740] | A′ | A′ | A′ | A′ | A′ | 
19 | CN1CCN(Cc2csc3nc(-c4ccccc4NC(=O)c4cnc5ccccc5n4)cn23)C(=O)C1 [Compound 741] | A′ | A′ | A′ | A′ | A′ | 
20 | O=C(Nc1ccccc1-c1cn2c(CN3CCSCC3)csc2n1)c1cnc2ccccc2n1 [Compound 742] | A′ | A′ | A′ | A′ | A′ | 
21 | O=C(Nc1ccccc1-c1cn2c(Cn3ccnc3)csc2n1)c1cnc2ccccc2n1 [Compound 745] | A′ | A′ | A′ | A′ | A′ | 
22 | C/C=C1\NC(=O)[C@H]2CSSCC/C=C/[C@H](CC(=O)N[C@H](C(C)C)C(=O)N2)OC(=O)[C@H](C(C)C)NC1=O [Depsipeptide, depsipeptide] |  |  |  |  |  | inhibition of HDAC [1]: inhibit HDAC activity at micromolar concentrations
23 | [N]=O [Nitric oxide] |  |  |  |  |  | concentration that inhibits cytochrome oxidase (Complex IV) [4]: about 1 micromolar
24 | CC(C)(C)NC[C@H](O)COc1nsnc1N1CCOCC1 [timolol] |  |  |  |  |  | time for IOP to fall [5]: 30 min; time of peak effects on IOP [5]: 1 to 2 h
25 | depudecin |  |  |  |  |  | inhibition of HDAC [1]: inhibit HDAC at micromolar concentrations
26 | trichostatin A [TSA] |  |  |  |  |  | inhibition of HDAC [1]: potent inhibitor of mammalian HDAC
